This note sets out measurements from patent publication US12433892B2, “Compositions and methods of treatment for neurological disorders comprising depression” (Gliapharm SA, priority 2018, dated 2025).

In data set [1] the test system is cerebral extracellular lactate. As to the kind of experiment: In vivo pharmacodynamics: lactate biosensors in cortex. On the set-up: species or system mouse. The protocol:
Extracellular levels of lactate were monitored in vivo using lactate biosensors (Pinnacle Technology), according to the manufacturer's instructions. Cannulae were surgically implanted in mice cerebral cerebral motor cortex areas M1/M2 (coordinates: +1.94 mm (to bregma), lateral −1.4 mm (to mideline), ventral −1.0 mm (to dura)) 5-7 days before administration of the compounds. Drugs were administered per os as previously described, and cerebral levels of extracellular lactate were dynamically recorded for 6 hours. Mice were administered vehicle alone first, followed 3 hours later by vehicle or drug (10 or 100 mg/kg). Area Under the Curve (AUC) quantifying the fluctuations of extracellular lactate concentrations for each of the compound tested was calculated using Graphad Prism and the ratio of AUC after drug over Vehicle administration was calculated. Groups of 8 male mice were used for each condition.
To measure biological effect of lead molecules in vivo in the brain, lactate levels were quantified after administration of the drug by using lactate biosensors implanted in the cortex of freely moving mice.

Data set [2] relates to astrocytes. The data set can be described thus: Intracellular glycogen quantification. Format: cell-based, mouse. Particulars: Prestwick hits; 10 uM, 3 h. The protocol:
For glycogen dosage, a protein dosage was first performed in order to assess whether harvested astrocytes from primary cell cultures yielded enough and equivalent amounts of proteins comparing each replicate, and to ensure that the obtained differences in glycogen quantities were due to drug action and not to inner protein quantities.
Astrocytes used for these dosages were previously grown in 6-well plates for 17 days and stimulated with Vehicle (DMSO) or drug of interest (1 μM to 100 μM) for 180 min, at 37° C. 5% CO2/95% air in D5030 complete medium. Medium was removed and replaced with 600 μl of 30 mM Tris HCl, and stored at −20° C.
Proteins were dosed using the micro BCA Protein Assay kit (Thermo Scientific), as described in the manufacturer's instructions. Briefly, thawed cells were sonicated and 5 μl aliquots were placed in a transparent 96-well plate, to which we added 25 μl 30 mM Tris HCl, 70 μl H2O and 100 μl of a BCA mix (made as described in manufacturer's guidelines). After a 120 min-incubation at 37° C., absorbance was measured with Safire 2 spectrophotometer at a wavelength of 562 nm, and protein quantities were determined from a standard curve of Bovine Serum Albumin (BSA).
Glycogen was quantified using a 250 μl-aliquot of the same stimulated, thawed, and sonicated cells. After an incubation period of 30 min at 90° C. and 400 rpm, 28 μl of an acetic acid/sodium acetate (both from Sigma) 0.1M pH 4.6 buffer was added to each aliquot, which was then separated in two. Each split aliquot received whether 5 μl of amyloglucosidase (Roche) or 5 μl H2O, and all cell solutions were incubated for 120 min in a shaking 37° C.-waterbath. After a centrifugation at 16'000 G for 5 min, 20 μl of supernatant were placed 96-well plate, to which 150 μl of a mix containing 0.67 mM ATP (Roche), 0.67 mM NADP (Roche), 1.8% hexokinase/glucose-6-phosphate dehydrogenase (Roche) and 0.1M Tris Buffer-HCl/3.3 mM magnesium (Fluka)/pH 8.1 buffer was added. Fluorescence was measured with Safire 2 spectrophotometer (340 nm excitation/440 nm emission). Glycogen concentration was obtained by subtracting glucose value of samples with amyloglucosidase to samples without amyloglucosidase, and were expressed relative to the amount of proteins previously determined.
Levels of intracellular glycogen in astrocytes were measured at 3 h after stimulation with 20 hits from the Prestwick library (10 μM each), as shown in FIG. 2. n=6-10; Ctrl pos. is glutamate (0.5 mM). Statistical analysis consisted in ANOVA followed by Fisher LSD post-hoc test for pair-wise comparisons.
Statistical analysis consisted in ANOVA followed by Fisher LSD post-hoc test for pair-wise comparisons.

Data set [3] is described as follows: In vivo pharmacokinetics (PFC microdialysis and plasma). Particulars: after gavage with 100 mg/kg. On the set-up: species or system mouse. The protocol: Mice were anesthetized using isoflurane (2% and 800 mL/min O2). Before surgery, Finadyne (1 mg/kg, s.c.) was administered for analgesia during surgery and the post-surgical recovery period. A mixture of bupivacaine and epinephrine was used for local anesthesia of the incision site of the periost of the skull.
The animals were placed in a stereotaxic frame (Kopf instruments, USA). MetaQuant microdialysis probes with a 3 mm exposed polyacrylonitrile membrane (MQ-PAN 3/3, Brainlink, the Netherlands) were implanted into the prefrontal cortex (coordinates for the tip of the probe: AP=+2.0 mm (to bregma), lateral=−0.7 mm (to midline), ventral=−3.3 mm (to dura), with the incisor bar set at 0.0 mm and an angle of 8°). All coordinates were based on “The mouse brain in stereotaxic coordinates” by Paxinos and Franklin (2004). The probes were attached to the skull with a stainless steel screw and dental cement (Fuji Plus Capsules, Henry Schein, the Netherlands).
In the same surgical procedure, a catheter was placed into the jugular vein to accommodate blood sampling. An indwelling cannula was inserted into the right jugular vein, and exteriorized through an incision on top of the skull. The end of the jugular vein catheter was fixed in position with dental acrylic cement and attached to the skull with two stainless steel screws.
Experiments were initiated one day after surgery. The MetaQuant microdialysis probes were connected with flexible PEEK tubing (Western Analytical Products Inc. USA; PK005-020) to a microperfusion pump (CMA Microdialysis) and perfused with aCSF+0.2% BSA at a flow rate of 0.12 μL/min. Ultrapurified water+0.2% BSA was used as the carrier flow at a flow rate of 0.80 μL/min. After a minimum of 1.5 hours of prestabilization, microdialysis samples were collected in 30 minute intervals. Samples were collected into polystyrene microvials (Microbiotech/se AB, Sweden; 4001029) using an automated fraction collector (UV 8301501, TSE, Univentor, Malta). After collection of three basal samples, at t=0 minutes, drug of interest was administered per os. Eight additional samples were collected after compound administration. All samples were stored at −80° C. until off-line analysis.
In parallel, blood samples (50 μL) were taken from the jugular vein through the cannula. These samples were collected at specified intervals into vials containing 5 μL heparin (500 IE/mL in saline). The samples were mixed by inverting the tubes and, subsequently, centrifuged at 4000 rpm (1500×g) for 10 min at 4° C. The supernatant was stored as plasma in 1.5 mL Eppendorf vials (Sarstedt, Germany) at −80° C. until off-line analysis.
At the end of the experiment, the animals were euthanized and terminal brain tissue was collected for visual histological verification of the probe positions.
PK was measured for GP-04, GP-05, GP-07, GP-R1 and GP-P1 in the PFC (prefrontal cortex) and plasma of wild type C56Bl/6 mice by CRO Brainsonline.

For data set [4], the system named is C57Bl/6 male and female mice. The data set can be described thus: In vivo chronic toxicity (28 days). The note with it: 10 mg/kg per os once a day, 28 days. The method, then:
During this period, clinical symptoms and weight were recorded.
Chronic toxicity was assessed.

A further data set relates to primary astrocytes. The data set can be described thus: Intracellular glycogen quantification, Example 2. Particulars: 10 μM, 3 h (GP-0157: 0.1, 1, 10 μM). Format: cell-based, mouse. The method, then: To assess for the effect of the compounds of the invention, those were tested in primary astrocytes, as described below. Secretion of lactate was measured directly in the extracellular medium, and indirectly through the acidification of extracellular medium using extracellular pH sensor SNARE-5F-(AND-6)-CAR (SNARF5). Glucose uptake was measured by quantification 2-deoxyglucose in the cell. Cell Cultures Primary cultures of cerebrocortical astrocytes were obtained from 1 to 2-day-old OF1 mouse pups (Charles River). Briefly, cortices were isolated and minced in small pieces under a dissecting microscope. The cells were incubated for 30 min at 37° C. in a solution containing 20 U/ml papain, 1 mM L-cysteine and 10 kU/ml DNase I. After dissociation, papain activity was stopped by the addition of fetal calf serum (FCS). Single-cell suspension was then obtained by mechanical dissociation, which consisted in cells trituration in a DMEM D7777 medium supplemented with 44 mm NaHCO3, 10 ml/L antibiotic/antimycotic solution and 10% FCS. The cells were seeded at an average density of ˜10'000 cells/cm2 on poly-D-lysine coated 96- or 12-well culture plates, depending on their use, and grown in DMEM D7777 medium supplemented with 44 mm NaHCO3, 10 ml/L antibiotic/antimycotic solution and 10% FCS at 37° C. in a humidified atmosphere containing 5% CO2/95% air. Culture medium was renewed twice a week. Cells were stimulated and harvested between DIV14 and DIV17, when confluence and cell growth were optimal. Extracellular Medium Acidification (SNARF5) Secretion of lactate was measured indirectly through the acidification of extracellular medium using extracellular pH sensor […] (SNARF5). After washing cells twice with stimulation medium (DMEM (D5030, Sigma), 1 mM NaHCO2, and 5 mM Glucose, pH 7.4) at 37° C., cells were stimulated with compounds at a final concentration ranging from 10 nM to 30 μM in 50 μl per well of stimulation medium supplemented with 10 μM of SNARF5 (Life Technologies Corporation). Each compound was tested in two different plates for duplicates. After 90 min stimulation, fluorescence was read at exc. (excitation) 480 nm/emm. (emission) 580 nm and at exc 480 nm/emm. 630 nm. The ratio of fluorescence between 630 nm and 580 emission values, which is proportional to extracellular pH, was calculated. In each plate, 8 wells were used for negative controls (DMSO 0.1%) and 8 wells were used for positive controls (CCCP 2 μM in DMSO). The extracellular medium acidification in primary mouse astrocytes treated with GP-A1 was quantified (FIG. 13). Extracellular medium acidification was measured over a period of 1.5 h and 3 h. […] Extracellular Lactate Quantification Secretion of L-lactate was measured in the extracellular medium of 96-well plated astrocytes after 90 min stimulation (at 37° C., in 5% CO2/95% air conditions) with Vehicle (DMSO), the compounds of the invention (100 nM to 100 μM) or positive control. […] Stimulation medium was composed of D5030 medium complemented with 5 mM D-glucose and 44 mM sodium bicarbonate, pH 7.2. To quantify lactate concentrations in the extracellular medium, 200 μl of a 0.2M Glycine-semicarbazide buffer (pH 10) containing 3 mM NAD and 14 U/ml LDH was added to each well of a 96-well plate containing 30 μl aliquots of extracellular medium. Samples were incubated at 37° C. for 1 h. Fluorescence intensity (340 nm excitation/450 nm emission), which represents the amount of NADH produced, was measured, and lactate concentration values were determined relative to a standard curve of L-lactate concentrations. The release of lactate from primary mouse astrocytes treated with GP-A1 was quantified (FIG. 5A and FIG. 14). Accumulation of lactate in the extracellular medium was measured over a period of 1.5 h. […] Intracellular Glycogen Quantification Astrocytes grown on 12-well plates were used for intracellular glycogen quantifications. […]

The test system of data set [5] is astrocytes. The data set can be described thus: Intracellular glycogen quantification. Format: cell-based, mouse. The note with it: CDC54K hits; 10 uM, 3 h.

Structures can show the parent of a compound that is named as a salt.

`N=C(N)N1CCc2ccccc2C1` [Debrisoquin sulfate]: the “cerebral lactate (AUC ratio vs vehicle)” value in data set [1] (10 mg/kg per os) was “Significant increase”. Moreover, the “Glycogen (statistical significance of glycogen degradation)” value in the data set on astrocytes [2] is recorded as “**** (****p<0.0001)”. Also, the “levels in the PFC” value in data set [3] was “at therapeutic range (100 nM to 1 uM) and sustained over several hours”.
For `C[N+]1(C)CCC(=C(c2ccccc2)c2ccccc2)CC1` [Diphemanil methylsulfate], the “chronic toxicity (toxic or safe)” value in data set [4] is “safe”. Further, the “cerebral lactate (AUC ratio vs vehicle)” value in data set [1] (10 mg/kg per os) is on record as “Significant increase”. Also, in the data set on astrocytes [2], the “Glycogen (statistical significance of glycogen degradation)” value is recorded as “**** (****p<0.0001)”. In addition, the “levels in the PFC” value in data set [3] was “at therapeutic range (100 nM to 1 uM) and sustained over several hours”.
In the case of `Cc1ccccc1NC(=O)C1CCCN(c2ncnc3oc(C)c(C)c23)C1` (stereo not drawn) [F228-0422], the “mobilization of intracellular glycogen” value with primary astrocytes is listed as “significantly enhance the mobilization of intracellular glycogen”.
The same measure, in the same setting: the value for `CCc1nc(-c2csc(S(=O)(=O)NCc3ccc4c(c3)OCO4)c2)no1` [L287-0468] was “significantly enhance the mobilization of intracellular glycogen”; that for `CCn1nccc1-c1csc(S(=O)(=O)Nc2ccc(Cl)cc2F)c1` [L924-1031] was “significantly enhance the mobilization of intracellular glycogen”.
Regarding `CC(=O)N1CCc2sc(S(=O)(=O)N3CCN(c4ccccc4C)CC3)cc2C1` [P025-0159], in the data set on primary astrocytes, the “mobilization of intracellular glycogen” value is listed as “significantly enhance the mobilization of intracellular glycogen”. Besides, the “cerebral lactate (AUC ratio vs vehicle)” value in data set [1] (100 mg/kg per os) is on record as “Significant increase”. Moreover, the “levels in the PFC” value in data set [3] is “need chemical improvement to reach their target at therapeutic dose in the brain”.
For `c1ccc2c(c1)CCN(c1ncnc3sccc13)C2` [T0517-8250], in the data set on primary astrocytes, the “mobilization of intracellular glycogen” value is recorded as “significantly enhance the mobilization of intracellular glycogen”.
Take `N#Cc1ccc(C(=O)N2CCC(Nc3ncnc4c3CCC4)C2)cc1` (stereo not drawn) [T636-2387]: the “mobilization of intracellular glycogen” value with primary astrocytes is given as “significantly enhance the mobilization of intracellular glycogen”. For the same molecule, the “cerebral lactate (AUC ratio vs vehicle)” value in data set [1] (100 mg/kg per os) is listed as “Significant increase”.
With `COc1cc(C)c(Cl)cc1S(=O)(=O)NCc1ccncc1` [T5580243], the “cerebral lactate (AUC ratio vs vehicle)” value in data set [1] (100 mg/kg per os) is listed as “Significant increase”. Besides, in data set [3], the “levels in the PFC” value is “at therapeutic range (100 nM to 1 uM) and sustained over several hours”.
As to `O=C1CCCN1c1ccc(S(=O)(=O)Nc2cccc(/C=C/c3ccccn3)c2)cc1` [T5644989], the “mobilization of intracellular glycogen” value in the data set with primary astrocytes was “significantly enhance the mobilization of intracellular glycogen”.
On to `COc1cccc(CNS(=O)(=O)c2ccc3c(c2)CCCN3C(C)=O)c1` [T5967389], for which the “Glycogen (statistical significance of glycogen degradation)” value in the data set on astrocytes [5] is recorded as “* (*p<0.05)”.
Turning to `Cc1nc2ccc(NS(=O)(=O)c3cccc(F)c3)cc2s1` [T6937001], the “mobilization of intracellular glycogen” value in the data set on primary astrocytes is reported as “significantly enhance the mobilization of intracellular glycogen”.
